According to ChEMBL document CHEMBL2034960, “Bryonolic acid transcriptional control of anti-inflammatory and antioxidant genes in macrophages in vitro and in vivo” (J Nat Prod, 2012):

Tested on: RAW264.7
Test: Cytotoxicity against mouse RAW264.7 cells at 100 uM after 8 hrs by MTT assay
Assay type: cell-based
Conditions: raw264.7, 8 h

## C=C(C)[C@@H]1CC[C@]2(C(=O)O)CC[C@]3(C)[C@H](CC[C@@H]4[C@@]5(C)CC[C@H](O)C(C)(C)[C@@H]5CC[C@]43C)[C@@H]12 [BETULINIC ACID]
  Activity: Toxic
